Drawing on patent US20100003246A1, “Novel heterocyclic compounds and uses therof” (priority 2008, published 2010), this text covers IC50 for 29 molecules.

This assay deals with T1, b-Raf(V600E) (Homo sapiens, UniProt P15056, V600E).
T1 construct: made in house
T1 sequence (P15056 whole entry V600E): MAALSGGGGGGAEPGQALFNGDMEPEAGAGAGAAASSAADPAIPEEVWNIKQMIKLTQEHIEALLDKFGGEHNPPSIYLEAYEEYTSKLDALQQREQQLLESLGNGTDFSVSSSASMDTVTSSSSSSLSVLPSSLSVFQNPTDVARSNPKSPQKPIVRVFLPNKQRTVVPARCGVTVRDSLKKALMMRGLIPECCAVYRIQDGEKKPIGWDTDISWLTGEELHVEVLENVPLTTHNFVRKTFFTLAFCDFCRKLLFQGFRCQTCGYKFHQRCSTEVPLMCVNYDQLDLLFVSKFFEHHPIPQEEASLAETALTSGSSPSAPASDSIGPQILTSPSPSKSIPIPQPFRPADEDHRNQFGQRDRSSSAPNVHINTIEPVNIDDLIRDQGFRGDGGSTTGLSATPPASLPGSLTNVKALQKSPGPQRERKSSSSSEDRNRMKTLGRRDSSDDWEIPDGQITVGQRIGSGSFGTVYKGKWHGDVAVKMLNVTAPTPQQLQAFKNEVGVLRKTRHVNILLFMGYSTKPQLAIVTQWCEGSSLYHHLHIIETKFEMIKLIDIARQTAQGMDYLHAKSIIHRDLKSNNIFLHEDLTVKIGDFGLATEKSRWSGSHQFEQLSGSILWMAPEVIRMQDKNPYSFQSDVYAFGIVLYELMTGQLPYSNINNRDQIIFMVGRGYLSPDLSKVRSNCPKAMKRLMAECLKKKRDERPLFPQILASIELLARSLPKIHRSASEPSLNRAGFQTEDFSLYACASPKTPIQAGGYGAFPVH
Nature of the assay: Raf/Mek Amplified Luminescence Proximity Homogeneous Assay (Alpha Screen), b-Raf(V600E). The following applies: mutant b-Raf(V600E), read-out: mut-b-RAF (IC50 in uM). It counts as biochemical. On the procedure:
Assay buffer: 50 mM Tris, pH 7.5, 15 mM MgCl2, 0.01% BSA, 1 mM DTT Stop buffer: 60 mM EDTA, 0.01% Tween20 Bead buffer: 50 mM Tris, pH 7.5, 0.01% Tween20
b-Raf(V600E), active: Recombinant in-house material biotinylated Mek, kinase dead: Recombinant in-house material Alpha Screen detection kit PerkinElmer, #6760617R Anti phospho-MEK½ Cell signaling #9121 384 well assay plates: White Greiner plates, #781207
b-Raf(V600E) approximately 4 pM c-Raf approximately 4 nM biotinylated Mek, Kinase dead approximately 10 nM
Pre-incubation time with compounds 60 min at room temperature Reaction time 1 or 3 hours at room temperature
Raf and biotinylated Mek, kinase dead, were combined at 2× final concentrations in assay buffer (50 mM Tris, pH 7.5, 15 mM MgCl2, 0.01% BSA and 1 mM DTT) and dispensed 10 μl per well in assay plates (Greiner white 384 well assay plates #781207) containing 0.5 μl of 40× of a raf kinase inhibitor test compound diluted in 100% DMSO. The plate was incubated for 60 min at room temperature.
The Raf kinase activity reaction was started by the addition of 10 μl per well of 2×ATP diluted in assay buffer. After 3 hours (bRaf(V600E)) or 1 hour (c-Raf), the reactions were stopped with the addition of 10 μl of stop reagent (60 mM EDTA). Phosphorylated product was measured using a rabbit anti-p-MEK (Cell Signaling, #9121) antibody and the Alpha Screen IgG (Protein A) detection Kit (PerkinElmer #6760617R), by the addition of 30 μL to the well of a mixture of the antibody (1:2000 dilution) and detection beads (1:2000 dilution of both beads) in bead buffer (50 mM Tris, pH 7.5, 0.01% Tween20). The additions were carried out under dark conditions to protect the detection beads from light. A lid was placed on top of the plate and incubated for 1 hour at room temperature, then the luminescence was read on a PerkinElmer Envision instrument. The concentration of each compound for 50% inhibition (IC50) was calculated by non-linear regression using XL Fit data analysis software.
The Raf/Mek Amplified Luminescence Proximity Homogeneous Assay described was used to generate the luminescence and mutant b-Raf(V600E) IC50 data for selected Raf Kinase Inhibitors shown in Table 1 above.
One may read the IC50 as the midpoint of a concentration-inhibition curve. As to `COc1cc(-c2nc(C(C)(C)C)[nH]c2-c2ccnc(N[C@@H]3CCN(C(C)=O)C3)n2)cnc1N` [Compound 185, (R)-1-(3-(4-(4-(6-amino-5-methoxypyridin-3-yl)-2-tert-butyl-1H-imidazol-5-yl)pyrimidin-2-ylamino)pyrrolidin-1-yl)ethanone], the half-inhibitory concentration (IC50) came to 0.0032 µM.

As to `COc1cc(-c2nc(C(C)(C)C)[nH]c2-c2ccncc2)cnc1N` [Compound 128, 5-(2-tert-butyl-5-(pyridin-4-yl)-1H-imidazol-4-yl)-3-methoxypyridin-2-amine], the IC50 was found to be 0.001 µM.

As to `COc1cc(-c2nc(C(C)(C)C)oc2-c2ccnc(NCC(C)C)c2)cnc1N` [Compound 246, 4-(4-(6-amino-5-methoxypyridin-3-yl)-2-tert-butyloxazol-5-yl)-N-isobutylpyridin-2-amine], the half-inhibitory concentration (IC50) stood at 0.0001 µM.

As to `COc1cc(-c2nc(C(C)(C)C)[nH]c2-c2ccnc(NC[C@H](C)O)n2)cnc1N` [Example 6], the IC50 was found to be 0.0003 µM.

Consider `COc1cc(Nc2nccc(-c3[nH]c(C(C)(C)C)nc3-c3nc(OC)c(N)nc3C)n2)ccn1` [Compound 253, 4-(4-(5-amino-6-methoxy-3-methylpyrazin-2-yl)-2-tert-butyl-1H-imidazol-5-yl)-N-(2-methoxypyridin-4-yl)pyrimidin-2-amine], for which the IC50 was 0.0062 µM.

For `COc1cc(-c2[nH]c(C(C)(C)C)nc2-c2ccnc(N[C@@H](C)CNC(=O)[C@@H](C)OC)n2)cnc1N` [Compound 208, (R)-N-((S)-2-(4-(5-(6-amino-5-methoxypyridin-3-yl)-2-tert-butyl-1H-imidazol-4-yl)pyrimidin-2-ylamino)propyl)-2-methoxypropanamide], the IC50 is 0.0014 µM.

On to `COc1cc(-c2[nH]c(-c3cccc(-c4ccncc4)c3)nc2-c2ccncc2)cnc1N` [Compound 170, 3-methoxy-5-(4-(pyridin-4-yl)-2-(3-(pyridin-4-yl)phenyl)-1H-imidazol-5-yl)pyridin-2-amine], for which the half-maximal inhibitory concentration (IC50) amounted to 0.0002 µM.

Consider `COc1cc(-c2[nH]c(-c3ccc(F)cc3)nc2-c2ccnc(O)n2)cnc1N` [Compound 180, 4-(5-(6-amino-5-methoxypyridin-3-yl)-2-(4-fluorophenyl)-1H-imidazol-4-yl)pyrimidin-2-ol], for which the IC50 was determined as 0.892 µM.

For the molecule `COCC(=O)N[C@@H](C)CNc1nccc(-c2[nH]c(C(C)C)nc2-c2cnc(N)c(OC)n2)n1` [Compound 227, (S)-N-(1-(4-(4-(5-amino-6-methoxypyrazin-2-yl)-2-isopropyl-1H-imidazol-5-yl)pyrimidin-2-ylamino)propan-2-yl)-2-methoxyacetamide], the IC50 was 0.0003 µM.

Consider `COCC(=O)N[C@@H](C)CNc1nccc(-c2[nH]c(-c3ccc(C(F)(F)F)cc3)nc2-c2cnc(N)c(OC)n2)n1` [Example 4, (S)—N-(1-(4-(4-(5-amino-6-methoxypyrazin-2-yl)-2-(4-(trifluoromethyl)phenyl)-1H-imidazol-5-yl)pyrimidin-2-ylamino)propan-2-yl)-2-methoxyacetamide], for which the IC50 is 0.0001 µM.

For `COc1cc(-c2nc(C(C)(C)C)[nH]c2-c2ccnc(Nc3ccc4c(c3)OC(F)(F)O4)n2)cnc1N` [Compound 189, 4-(4-(6-amino-5-methoxypyridin-3-yl)-2-tert-butyl-1H-imidazol-5-yl)-N-(2,2-difluorobenzo[d][1,3]dioxol-5-yl)pyrimidin-2-amine], the IC50 stood at 0.0003 µM.

In the case of `COc1cc(-c2nc(C(C)(C)C)[nH]c2-c2ccnc(Nc3cccc(OC(F)(F)F)c3)n2)cnc1N` [Compound 190, 4-(4-(6-amino-5-methoxypyridin-3-yl)-2-tert-butyl-1H-imidazol-5-yl)-N-(3-(trifluoromethoxy)phenyl) pyrimidin-2-amine], the 50% inhibitory concentration (IC50) worked out at 0.0003 µM.

As for `Nc1ncc(-c2[nH]c(-c3ccccc3)nc2-c2ccncc2)cc1O` [Compound 143, 2-amino-5-(2-phenyl-4-(pyridin-4-yl)-1H-imidazol-5-yl)pyridin-3-ol], the IC50 came out at 0.215 µM.

In the case of `COc1cc(-c2[nH]c(-c3ccc(F)cc3)nc2-c2cncs2)cnc1N` [Example 11, 5-(2-(4-fluorophenyl)-5-(thiazol-5-yl)-1H-imidazol-4-yl)-3-methoxypyridin-2-amine], the half-maximal inhibitory concentration (IC50) turned out to be 0.0365 µM.

As for `COc1cc(-c2[nH]c(-c3cccc(C#N)c3)nc2-c2ccncc2)cnc1N` [Compound 102, 3-(5-(6-amino-5-methoxypyridin-3-yl)-4-(pyridin-4-yl)-1H-imidazol-2-yl)benzonitrile], the half-inhibitory concentration (IC50) came to 0.0011 µM.

As to `CNc1ncc(-c2nc(-c3ccccc3)[nH]c2-c2ccncc2)cn1` [Compound 83, N-methyl-5-(2-phenyl-5-(pyridin-4-yl)-1H-imidazol-4-yl)pyrimidin-2-amine], the IC50 is 0.197 µM.

Take `COc1nc(-c2[nH]c(-c3ccccc3)nc2-c2ccncc2)cnc1N` [Compound 39, 3-methoxy-5-(2-phenyl-4-(pyridin-4-yl)-1H-imidazol-5-yl)pyrazin-2-amine]: the IC50 is 0.006 µM.

Take `Nc1n[nH]c2cc(-c3[nH]c(-c4ccccc4)nc3-c3ccncc3)cc(F)c12` [Compound 30, 4-fluoro-6-(2-phenyl-4-(pyridin-4-yl)-1H-imidazol-5-yl)-1H-indazol-3-amine]: the IC50 was determined as 0.528 µM.

Consider `COc1cncc(-c2[nH]c(-c3ccccc3)nc2-c2ccncc2)c1` [Compound 36, 3-methoxy-5-(2-phenyl-4-(pyridin-4-yl)-1H-imidazol-5-yl)pyridine], for which the half-maximal inhibitory concentration (IC50) turned out to be 0.013 µM.

As to `COc1cc(-c2ccc(S(=O)(=O)N3CCC[C@@H](Nc4nccc(-c5nc(-c6ccccc6)[nH]c5-c5cnc(N)c(OC)c5)n4)C3)cc2)cnc1N` [Compound 64, (R)-4-(5-(6-amino-5-methoxypyridin-3-yl)-2-phenyl-1H-imidazol-4-yl)-N-(1-(4-(6-amino-5-methoxypyridin-3-yl)phenylsulfonyl)piperidin-3-yl)pyrimidin-2-amine], the 50% inhibitory concentration (IC50) came out at 0.0003 µM.

Turning to `COc1cc(-c2[nH]c(-c3cccc4cccnc34)nc2-c2ccncc2)cnc1N` [Compound 168], the 50% inhibitory concentration (IC50) was 0.0009 µM.

For the molecule `COc1cc(-c2nc(-c3ccc(F)cc3)sc2-c2ccncc2)cnc1N` [Example 16, 5-(2-(4-fluorophenyl)-5-(pyridin-4-yl)thiazol-4-yl)-3-methoxypyridin-2-amine], the IC50 came to 0.0143 µM.

With `COc1cc(-c2[nH]c(-c3ccccc3)nc2C2=CCOCC2)cnc1N` [Compound 80, 5-(4-(3,6-dihydro-2H-pyran-4-yl)-2-phenyl-1H-imidazol-5-yl)-3-methoxypyridin-2-amine], the IC50 is 0.038 µM.

Regarding `CC[C@@H](C)Nc1nccc(-c2nc(-c3ccc(F)cc3)[nH]c2-c2cnc(N)c(OC)c2)n1` [Compound 181, (R)-4-(5-(6-amino-5-methoxypyridin-3-yl)-2-(4-fluorophenyl)-1H-imidazol-4-yl)-N-sec-butylpyrimidin-2-amine], the half-inhibitory concentration (IC50) was 0.0099 µM.

On to `COc1cc(-c2nc(C(C)(C)C)[nH]c2-c2ccnc(Nc3cccc(C(F)(F)F)c3)n2)cnc1N` [Compound 191, 4-(4-(6-amino-5-methoxypyridin-3-yl)-2-tert-butyl-1H-imidazol-5-yl)-N-(3-(trifluoromethyl)phenyl) pyrimidin-2-amine], for which the IC50 came to 0.0004 µM.

Regarding `COc1cc(-c2nc(-c3ccccc3)[nH]c2-c2ccnc(N)c2)cnc1N` [Compound 55, 5-(5-(2-aminopyridin-4-yl)-2-phenyl-1H-imidazol-4-yl)-3-methoxypyridin-2-amine], the IC50 was determined as 0.0098 µM.

In the case of `COc1nc(-c2nc(C(C)(C)C)[nH]c2-c2ccnc(NC[C@H](C)NC(=O)OCC(C)C)n2)cnc1N` [Compound 239, (S)-isobutyl 1-(4-(4-(5-amino-6-methoxypyrazin-2-yl)-2-tert-butyl-1H-imidazol-5-yl)pyrimidin-2-ylamino)propan-2-ylcarbamate], the IC50 turned out to be 0.0001 µM.

As to `c1ccc(-c2nc(-c3ccncc3)c(-c3ccc4cn[nH]c4c3)[nH]2)cc1` [Compound 32, 6-(2-phenyl-4-(pyridin-4-yl)-1H-imidazol-5-yl)-1H-indazole], the IC50 stood at 0.017 µM.

For `COCC(=O)N[C@@H](C)CNc1nccc(-c2[nH]c(-c3ccc(C(F)(F)F)cc3F)nc2-c2cnc(N)c(OC)c2)n1` [Compound 216, (S)-N-(1-(4-(6-(6-amino-5-methoxypyridin-3-yl)-2-(2-fluoro-4-(trifluoromethyl)phenyl)-1H-imidazol-5-yl)pyrimidin-2-ylamino)propan-2-yl)-2-methoxyacetamide], the half-maximal inhibitory concentration (IC50) came out at 0.0002 µM.
